We go through two compounds from patent US12679827B2, “Pyrimidine compounds and their pharmaceutical uses” (National Health Research Institutes, priority 2020, dated 2026).

One test deals with Colo205. Nature of the test: Proliferation inhibition of various cancer cells (PrestoBlue), Colo205. The class given is cell-based. The settings on record: Homo sapiens, COLO 205; Colon cancer; 72 hours. The procedure: (§1) The efficacies of compounds 41 and 86 of Formula (I) in inhibiting proliferation of eleven types of cancer cells were determined using PrestoBlue™ Cell Viability Reagent (ThermoFisher Scientific, USA). The eleven types of cancer cells are small cell lung cancer, non-small cell lung cancer, liver cancer, pancreatic cancer, breast cancer, colon cancer, prostate cancer, neuroblastoma, brain cancer, leukemia, and cholangiocarcinoma.
(§2) More specifically, […], i.e., NCI-H82 (ATCC® HTB-175), NCI-H446 (ATCC® HTB-171), NCI-H69 (ATCC® HTB-119), NCI-H146 (ATCC® HTB-173), NCI-H1792 (ATCC® CRL-5895), NCI-H1299 (ATCC® CRL-5803), SNU-398 (ATCC® CRL-2233), PSN-1 (ATCC® CRL-3211), MIA PaCa-2 (ATCC® CRL-1420), MDA-MB-231 (ATCC® HTB-26), LOVO (ATCC® CCL-229), COLO 205 (ATCC® CCL-222), PC-3 (ATCC® CRL-1435), SK-N-BE(2) (ATCC® CRL-2271), D341 Med (ATCC® HTB-187), K562 (ATCC® CCL-243), MOLM-13 (DSMZ-German Collection of Microorganisms and Cell Cultures GmbH, ACC No. 554), and SNU-478 (KCLB 00478), were seeded at a density of 4000-10000 cells per well in 96-well plates for 24 hours. The cancer cells were then treated with each compound at various concentrations (0-10 μM), followed by incubation for another 72 hours. IC50 values were computed based on duplicated 8-point titration.

For the next test, the system named is PC-3. Nature of the test: Proliferation inhibition of various cancer cells (PrestoBlue), PC-3. Conditions: Homo sapiens, Prostate cancer, 72 hours. The class given is cell-based. The procedure: as §1, §2
The subject of a further test is MYCN. Nature of the test: Western blot, MYCN protein level in SK-N-BE(2) cells. The class given is cell-based, human. The settings on record: SK-N-BE(2) (neuroblastoma) cells; 50, 200, 500, 1000 nM; 24 hours; FIG. 1. Here is the method: Compounds 41 and 86, both covered by Formula (I), were tested to assess their efficacies in reducing the level of cMYC oncoprotein in a human small-cell-lung-cancer (“SCLC”) cell line NCI-H82 (ATCC® HTB-175, USA) and the level of MYCN oncoprotein in a human neuroblastoma cell line SK-N-BE(2) (ATCC® CRL-2271, USA) as follows.
NCI-H82 was maintained in RPMI1640 medium (ThermoFisher Scientific, USA) supplemented with 10% fetal bovine serum (FBS, HyClone, USA) and antibiotics. SK-N-BE(2) was maintained in Minimum Essential Medium (MEM, ThermoFisher Scientific, USA) supplemented with 10% FBS (HyClone, USA) and antibiotics. The cancer cells from each cell line were treated with each of compounds 41 and 86 at 4 different compound concentrations, i.e., 50 nM, 200 nM, 500 nM, and 1000 nM. After 24 hours, each cancer cell solution was washed with 1× phosphate buffered saline (PBS), lysed in 1× Laemmli protein sample buffer, and boiled at 100° C. for 10 minutes. Each lysate was separated by SDS-PAGE, transferred to polyvinylidene fluoride (PVDF, Millipore, USA) membrane, and blotted with antibodies. Primary antibodies used for Western blotting were cMYC (Cell Signaling, Cat No. 5605S), MYCN (Cell Signaling, 9405S), PARP-1 (Abcam, ab32378), and GAPDH (Genetex, GTX100118). […]
Background: A western blot detects proteins with antibodies after separation by electrophoresis.

Another test has as its system NCI-H82. Nature of the test: Small-cell-lung cancer cell proliferation inhibition assay (PrestoBlue), NCI-H82. The class given is cell-based. The settings on record: Homo sapiens, cMYC amplified SCLC cells, 72 hours. Here is the method:
Small cell lung cancer cells NCI-H82 (ATCC HTB-175, cMYC amplified), NCI-H446 (ATCC® HTB-171, cMYC amplified), and NCI-H69 (ATCC® HTB-119, MYCN amplified) were seeded at the density of 5000-10000 cells per well in 96-well plates. After 24 hours, the cancer cells were treated with each compound at various concentrations (0-10 μM) and then incubated for another 72 hours. IC50 values were computed based on duplicated 8-point titration.

A further test has as its system MIA PaCa-2. Nature of the test: Proliferation inhibition of various cancer cells (PrestoBlue), MIA PaCa-2. The class given is cell-based. The settings on record: Homo sapiens, Pancreatic cancer, 72 hours. The procedure: as §1, §2
The test system of a further test is NCI-H69. Nature of the test: Proliferation inhibition of various cancer cells (PrestoBlue), NCI-H69. The class given is cell-based. The settings on record: Homo sapiens, Small cell lung cancer, 72 hours. Here is the method:
as §1, §2

The test system of a further test is D341 Med. Nature of the test: Proliferation inhibition of various cancer cells (PrestoBlue), D341 Med. The settings on record: Brain cancer, 72 hours. The class given is cell-based. Here is the method:
as §1, §2

The next test has as its system NCI-H146. Nature of the test: Proliferation inhibition of various cancer cells (PrestoBlue), NCI-H146. The class given is cell-based. The settings on record: Homo sapiens, Small cell lung cancer, 72 hours. The procedure:
as §1, §2

In the next test the test system is NCI-H1792. Nature of the test: Proliferation inhibition of various cancer cells (PrestoBlue), NCI-H1792. The class given is cell-based. The settings on record: Homo sapiens, Non-small cell lung cancer, 72 hours. Here is the method:
as §1, §2

For the next test, the system named is MDA-MB-231. Nature of the test: Proliferation inhibition of various cancer cells (PrestoBlue), MDA-MB-231. Conditions: Homo sapiens, Breast cancer, 72 hours. The class given is cell-based. The procedure:
as §1, §2

With `CCN1CCN(c2cc(Nc3cc(C)[nH]n3)nc(N[C@H]3CCN(C(=O)c4ccc(Cl)cc4F)C3)n2)CC1` [Compound 41], the IC50 in the test on Colo205 is below 1000 nM; with PC-3, below 10000 nM; with NCI-H82, below 1000 nM; in the test with MIA PaCa-2, below 1000 nM; with NCI-H69, below 200 nM; in the test with D341 Med it was below 200 nM. In addition, the IC50 in the test on NCI-H146 was below 2000 nM; in the test with NCI-H1792, below 2000 nM; in the test with MDA-MB-231, below 300 nM. Besides, the “protein level of MYCN” value in the test on MYCN was “greatly reduced”.

Consider `CCN1CCN(c2cc(Nc3cc(C)[nH]n3)nc(NC3CCN(C(=O)c4cccc(Cl)c4F)CC3)n2)CC1` [Compound 86], for which the IC50 in the test on Colo205 is below 1000 nM; in the test with PC-3 it was below 10000 nM; with NCI-H82, below 1000 nM; in the test with MIA PaCa-2 it was below 1000 nM; in the test on NCI-H69, below 200 nM; in the test with D341 Med, below 300 nM. For the same compound, the IC50 in the test on NCI-H146 is below 10000 nM; in the test with NCI-H1792, below 2000 nM; in the test with MDA-MB-231, below 300 nM. For the same compound, in the test on MYCN, the “protein level of MYCN” value is on record as “greatly reduced”.

In general, IC50 refers to the concentration that gives 50% inhibition.
